According to PubChem BioAssay AID248 (DTP/NCI, 2004):
Several values for one entry are separate records, joined by “and”; a condition that tells them apart may be missing. Equal entries are not always repeated. Toxic doses and inconclusive results are not listed. Rule as the data show it: active = T/C of 150% or more; inactive = T/C below 125%.

Tested on: L1210 leukemia ip in BDF1 mice, survival T/C
Test: NCI In Vivo Anticancer Drug Screen. Data for tumor model L1210 Leukemia (intraperitoneal) in B6D2F1 (BDF1) mice
Details: endpoint: mean survival time, higher = longer survival
Method in brief: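 Survival endpoint. Drug-treated group vs vehicle group, expressed as T divided by C. Tumor passaged by transplantation.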

[1] = dose: 50.0 mg/kg/injection, schedule: Q04DX003 (ip), vehicle: saline
[2] = dose: 100.0 mg/kg/injection, schedule: Q01DX001 (ip), vehicle: saline
[3] = dose: 100.0 mg/kg/injection, schedule: Q04DX003 (ip), vehicle: saline
[4] = dose: 200.0 mg/kg/injection, schedule: Q01DX001 (ip), vehicle: saline
[5] = dose: 200.0 mg/kg/injection, schedule: Q04DX003 (ip), vehicle: saline
[6] = dose: 400.0 mg/kg/injection, schedule: Q01DX001 (ip), vehicle: saline
[7] = dose: 100.0 mg/kg/injection, schedule: Q04DX003 (ip), vehicle: saline with Tween-80
[8] = dose: 200.0 mg/kg/injection, schedule: Q04DX003 (ip), vehicle: saline with Tween-80
[9] = dose: 400.0 mg/kg/injection, schedule: Q04DX003 (ip), vehicle: saline with Tween-80
[10] = dose: 12.5 mg/kg/injection, schedule: Q04DX003 (ip), vehicle: saline
[11] = dose: 25.0 mg/kg/injection, schedule: Q04DX003 (ip), vehicle: saline
[12] = dose: 100.0 mg/kg/injection, schedule: Q01DX009 (ip), vehicle: saline
[13] = dose: 200.0 mg/kg/injection, schedule: Q01DX009 (ip), vehicle: saline
[14] = dose: 50.0 mg/kg/injection, schedule: Q01DX009 (ip), vehicle: saline
[15] = dose: 100.0 mg/kg/injection, schedule: Q04DX002 (ip), vehicle: saline
[16] = dose: 200.0 mg/kg/injection, schedule: Q04DX002 (ip), vehicle: saline

Measured: T/C

Cc1ccc(-c2ccns2)cc1
inactive: [1] 105 % of control | [2] 100 % of control | [3] 108 % of control | [4] 104 % of control | [5] 103 % of control | [6] 104 % of control

Cc1ccnc2c([N+](=O)[O-])cccc12
inactive: dose: 75.0 mg/kg/injection, schedule: Q01DX001 (ip), vehicle: other 102 % of control | dose: 100.0 mg/kg/injection, schedule: Q04DX002 (ip), vehicle: saline with Tween-80 103 % of control | dose: 150.0 mg/kg/injection, schedule: Q01DX001 (ip), vehicle: other 102 % of control | dose: 200.0 mg/kg/injection, schedule: Q04DX002 (ip), vehicle: saline with Tween-80 109 % of control | dose: 300.0 mg/kg/injection, schedule: Q01DX001 (ip), vehicle: other 103 % of control

CC(C)(C)c1ccc(OC(=S)N2CCOCC2)cc1
inactive: dose: 100.0 mg/kg/injection, schedule: Q01DX009 (ip), vehicle: saline with Tween-80 98 % of control | [7] 96 % of control | dose: 200.0 mg/kg/injection, schedule: Q01DX009 (ip), vehicle: saline with Tween-80 107 % of control | [8] 96 % of control | dose: 400.0 mg/kg/injection, schedule: Q01DX009 (ip), vehicle: saline with Tween-80 102 % of control | [9] 93 % of control

CCc1nnnn1C12CC3CC(CC(C3)C1)C2
inactive: [3] 102 % of control

O=CC(CCN1CCCC1)(CCN1CCCC1)c1cccc2ccccc12
inactive: [10] 97 % of control | [11] 108 % of control | [1] 93 % of control

Nc1nc(=O)c2ccccc2s1
inactive: [2] 97 % of control | [7] 101 % of control | [4] 98 % of control | [8] 108 % of control | [6] 97 % of control | [9] 106 % of control

C[N+](C)(C)CCC[N+](C)(C)C
inactive: [12] 108 % of control | [3] 107 % of control | [13] 106 % of control | [5] 92 % of control | dose: 400.0 mg/kg/injection, schedule: Q01DX009 (ip), vehicle: saline 106 % of control | dose: 400.0 mg/kg/injection, schedule: Q04DX003 (ip), vehicle: saline 100 % of control

CC1CCN(C(=O)CC#N)CC1
inactive: [14] 108 % of control | [12] 112 % of control | [15] 102 % of control | [16] 102 % of control

CNC(=O)Oc1cccc(C=O)c1
inactive: dose: 100.0 mg/kg/injection, schedule: Q01DX001 (ip), vehicle: other 102 % of control | dose: 200.0 mg/kg/injection, schedule: Q01DX001 (ip), vehicle: other 117 % of control | dose: 400.0 mg/kg/injection, schedule: Q01DX001 (ip), vehicle: other 102 % of control

COc1ccccc1N1C(N)=NC(N)=NC1(C)C
inactive: dose: 25.0 mg/kg/injection, schedule: Q01DX009 (ip), vehicle: saline 104 % of control | [11] 113 % of control | [14] 98 % of control and 100 % of control | [1] 97 % of control | [3] 92 % of control

O=C(NCc1ccccc1)C1C2C=CC(CC2)C1C(=O)NCc1ccccc1 (centres undefined)
inactive: [7] 96 % of control | [8] 96 % of control | [9] 87 % of control

CCC[Si](C)(C)CCC
inactive: [2] 100 % of control | [4] 98 % of control | [6] 100 % of control

O=c1c2cn[nH]c2nc2ccccn12
inactive: [2] 96 % of control | [4] 94 % of control | [6] 94 % of control

O=C(O)c1ccc(C(=O)O)c(O)c1
inactive: [2] 105 % of control | [4] 97 % of control | [6] 94 % of control

S=c1nc[nH]c2nc(N=Nc3cc(Cl)ccc3Cl)[nH]c12
inactive: [2] 101 % of control | [4] 97 % of control

c1cc[n+](CCSCCSCC[n+]2ccccc2)cc1
inactive: dose: 3.12 mg/kg/injection, schedule: Q01DX009 (ip), vehicle: acetone 97 % of control | dose: 3.12 mg/kg/injection, schedule: Q04DX003 (ip), vehicle: saline 106 % of control | dose: 6.25 mg/kg/injection, schedule: Q01DX009 (ip), vehicle: acetone 95 % of control | dose: 6.25 mg/kg/injection, schedule: Q04DX003 (ip), vehicle: saline 101 % of control | dose: 12.5 mg/kg/injection, schedule: Q01DX001 (ip), vehicle: saline 105 % of control | [10] 97 % of control

CCCCCCCCCCCCCCCC(C)(C)O
inactive: dose: 100.0 mg/kg/injection, schedule: Q01DX009 (ip), vehicle: Klucel (hydroxypropylcellulose) (HPC) 102 % of control | dose: 100.0 mg/kg/injection, schedule: Q04DX003 (ip), vehicle: Klucel (hydroxypropylcellulose) (HPC) 96 % of control | dose: 200.0 mg/kg/injection, schedule: Q01DX009 (ip), vehicle: Klucel (hydroxypropylcellulose) (HPC) 100 % of control | dose: 200.0 mg/kg/injection, schedule: Q04DX003 (ip), vehicle: Klucel (hydroxypropylcellulose) (HPC) 96 % of control | dose: 400.0 mg/kg/injection, schedule: Q01DX009 (ip), vehicle: Klucel (hydroxypropylcellulose) (HPC) 102 % of control | dose: 400.0 mg/kg/injection, schedule: Q04DX003 (ip), vehicle: Klucel (hydroxypropylcellulose) (HPC) 101 % of control

CCCCNC(=S)C(CC)CCCC (centres undefined)
inactive: dose: 100.0 mg/kg/injection, schedule: Q04DX002 (sc), vehicle: olive oil, sesame oil, peanut oil 99 % of control | dose: 200.0 mg/kg/injection, schedule: Q04DX002 (sc), vehicle: olive oil, sesame oil, peanut oil 99 % of control | dose: 400.0 mg/kg/injection, schedule: Q04DX002 (sc), vehicle: olive oil, sesame oil, peanut oil 99 % of control

CCCCCCCCCCCCCCCCOc1cccc(OCc2ccccc2)c1
inactive: dose: 100.0 mg/kg/injection, schedule: Q04DX003 (ip), vehicle: DMSO 88 % of control | dose: 200.0 mg/kg/injection, schedule: Q04DX003 (ip), vehicle: DMSO 98 % of control | dose: 400.0 mg/kg/injection, schedule: Q04DX003 (ip), vehicle: DMSO 93 % of control

NCC1=NCCN1
inactive: dose: 25.0 mg/kg/injection, schedule: Q04DX002 (ip), vehicle: saline 93 % of control | dose: 50.0 mg/kg/injection, schedule: Q04DX002 (ip), vehicle: saline 97 % of control | [15] 101 % of control | [16] 93 % of control

O=C(O)C1Cc2c([nH]c3ccccc23)C(CCCCO)N1 (centres undefined)
inactive: dose: 100.0 mg/kg/injection, schedule: Q01DX001 (ip), vehicle: carboxymethylcellulose (CMC) 96 % of control

CCCC(=O)C(CC)C(O)(C(F)(F)F)C(F)(F)F (centres undefined)
inactive: [12] 92 % of control | [13] 94 % of control

Cc1nc(N)[nH]c(=O)c1CCCNC(=O)CCl (tested in a mixture with another compound)
inactive: dose: 50.0 mg/kg/injection, schedule: Q01DX001 (ip), vehicle: Klucel (hydroxypropylcellulose) (HPC) 114 % of control | dose: 100.0 mg/kg/injection, schedule: Q01DX001 (ip), vehicle: Klucel (hydroxypropylcellulose) (HPC) 108 % of control | dose: 200.0 mg/kg/injection, schedule: Q01DX001 (ip), vehicle: Klucel (hydroxypropylcellulose) (HPC) 100 % of control

Cn1cnccc1=O
inactive: dose: 50.0 mg/kg/injection, schedule: Q01DX009 (ip), vehicle: water 102 % of control | dose: 100.0 mg/kg/injection, schedule: Q01DX009 (ip), vehicle: water 104 % of control | dose: 100.0 mg/kg/injection, schedule: Q04DX003 (ip), vehicle: water 114 % of control | dose: 120.0 mg/kg/injection, schedule: Q04DX003 (ip), vehicle: water 98 % of control | dose: 200.0 mg/kg/injection, schedule: Q01DX009 (ip), vehicle: water 115 % of control | dose: 200.0 mg/kg/injection, schedule: Q04DX003 (ip), vehicle: water 100 % of control and 111 % of control | dose: 333.0 mg/kg/injection, schedule: Q04DX003 (ip), vehicle: water 95 % of control | dose: 400.0 mg/kg/injection, schedule: Q01DX009 (ip), vehicle: water 115 % of control | dose: 400.0 mg/kg/injection, schedule: Q04DX003 (ip), vehicle: water 106 % of control

CNC(=O)/C(=C\c1ccccc1)NC(C)=O
inactive: dose: 100.0 mg/kg/injection, schedule: Q01DX001 (ip), vehicle: saline with Tween-80 91 % of control | dose: 200.0 mg/kg/injection, schedule: Q01DX001 (ip), vehicle: saline with Tween-80 107 % of control | dose: 400.0 mg/kg/injection, schedule: Q01DX001 (ip), vehicle: saline with Tween-80 100 % of control
